Results reported in patent publication US20200009130A1, “OCULAR DISTRIBUTION AND PHARMACOKINETICS OF LIFITEGRAST FORMULATIONS” (SARcode Bioscience Inc., priority 2016, published 2020).

Columns and labels:
in vivo = assay: in vivo; set-up: species or system New Zealand Red/White F1 Cross rabbits; conditions: female, New Zealand Red/White F1 Cross, rabbit
Protocol: In this experiment, female pigmented rabbits were assigned to receive one of two formulations of lifitegrast (#1 and #2) for 5 consecutive days. Each treatment group consisted of 25 rabbits. Animals received a single topical ocular dose of lifitegrast in each eye b.i.d.
(except on study day 5), approximately 12 hours apart (±1 hour), at a target dose level of 1.75 mg/eye/dose (35 μL/eye/dose). On study day 5, animals were dosed in the morning only. Treatment groups 1 and 2 were dosed on separate days. The in-life portion of the study was conducted in May 2014. This study adhered to the ARVO Statement for the Use of Animals in Ophthalmic and Vision Research and all procedures in the study were in compliance with the Animal Welfare Act Regulations (9 CFR 3).
Fifty female New Zealand Red/White F1 Cross rabbits from Covance Research Products (Denver, Pa., USA) were used in the study. The animals were acclimated to study conditions for 13 days before dose administration. At dosing, the animals weighed 3177 to 4271 g and were at least 6 months of age. Animals were housed individually, in suspended stainless steel cages, with food and water ad libitum, and under a 12-hour light/12-hour darkness cycle throughout the study. Animals were not randomized, but were assigned to animal numbers based on overall health and the results of predose ophthalmic examinations. Ophthalmic examinations were performed by a board-certified veterinary ophthalmologist once at baseline (pre dose) using a Kowa hand-held slit-lamp biomicroscope and an indirect ophthalmoscope with a condensing lens to ensure the study animals were healthy and had no ocular findings pre-treatment.
Formulations for the study that would be representative of the clinical material (confirmed by analytical data) were prepared at Covance Laboratories Inc. In each formulation, lifitegrast was added to dose vehicle while stirring, and pH adjusted with hydrochloric acid (HCl) and/or sodium hydroxide (NaOH). The formulation was stirred until a clear solution was obtained, filtered with a 0.22 μm filter (Millipore® Millex-GV, 0.22 μm, Durapore® PVDF) and stored at approximately 5° C. Analysis of the formulations was performed by Almac Sciences, Souderton, Pa., USA, and concentrations were measured as 49.4 and 49.3 mg/mL for formulations #1 and #2, respectively.
Formulation #1: dose vehicle consisted of sterile water for injection, sodium chloride, sodium phosphate dibasic anhydrous, sodium bicarbonate, ethylenediaminetetraacetic acid (EDTA), and sodium thiosulfate pentahydrate, adjusted to a pH of 7.30 with HCl. After addition of lifitegrast (50 mg/mL), the pH was adjusted to 6.90. […]

[1] = literature; cited from earlier work

Cmax (in vivo): ≤ 36 ng/g
Tmax (in vivo): 15 to 60 min
half-life (in vivo; plasma t1/2): 51 min
half-life (in vivo; t1/2): ~120 min
SMILES: CS(=O)(=O)c1cccc(C[C@H](NC(=O)c2c(Cl)cc3c(c2Cl)CCN(C(=O)c2ccc4ccoc4c2)C3)C(=O)O)c1 [lifitegrast, Lifitegrast]
safety profile in clinical trials [1]: generally well tolerated
